Several values for one entry are separate records, joined by “and”; a condition that tells them apart may be missing. Identical values can stand only once. Counter-ions that a name gives are not always drawn. Like-named read-outs stand apart in the source and are kept apart here.
Key:
[1] = Acute toxicity by intravenous administration; details: rat, in vivo, i.v., male rats (dd strain, 18 to 22 g), fasted 12 hours, read-out: LD50 (50% lethal dose)
Description: Further, the acute toxicity by intravenous administration was determined with respect to the test compounds shown in Table 2 below using 5 to 6 groups each containing 10 male rats (dd strain; body weight: 18 to 22 g) which had been fasted for 12 hours prior to the test. The LD50 (50% lethal dose) results are as follows.

[2] = tested on: β-adrenoreceptor; test: Persistence (duration) of inhibition of histamine-induced bronchospasm, anesthetized dogs; assay type: in vivo, dog; details: FIGURE, i.v. 1 μg/kg, versus Compound (2)
Description: The stimulating activity of the compounds of this invention on β-adrenoreceptor was determined as follows: Male hydrid adult dogs, weighing 10 to 15 kg, were anesthesized with sodium pentobartital administered intravenously at a level of 30 mg/kg of body weight. Each of the anesthesized dogs was secured on its back and a cannula was inserted into the trachea. Artificial respiration was conducted using a device according to the Konzett-Rossler method (Konzett H. & Rossler R., "Versuchsanordnug zu Untersuchungen an der Bronchial Moskolatur", Arch. Exp. Path., […], 195, 71-74, 27-40 (1940). The volume of the air which overflowed at the time of inhalation was measured through a pneumotachometer to determine the bronchial resistance and the values obtained were recorded on a polygraph. […] Sodium pentobartital was infused during the procedure at a dosage level of 4 mg/kg of body weight/hr using an automatic injector in order to inhibit spontaneous respiration and to maintain the anesthetic condition constant over the test period. The persistance time was determined by administering to a subject a test compound in such a dose that a histamine-induced bronchospasm is inhibited completely (100%), in the same manner as described above and observing the persistance of the activity of the test compound with the lapse of time.

[3] = tested on: β2-receptor; test: Separation of bronchial resistance effect from heart rate effect (β2 selectivity), anesthetized dogs; assay type: in vivo, dog (male hybrid adult dogs); details: i.v.
Description: The stimulating activity of the compounds of this invention on β-adrenoreceptor was determined as follows: Male hydrid adult dogs, weighing 10 to 15 kg, were anesthesized with sodium pentobartital administered intravenously at a level of 30 mg/kg of body weight. Each of the anesthesized dogs was secured on its back and a cannula was inserted into the trachea. Artificial respiration was conducted using a device according to the Konzett-Rossler method (Konzett H. & Rossler R., "Versuchsanordnug zu Untersuchungen an der Bronchial Moskolatur", Arch. Exp. Path., Pharmack, 195, 71-74, 27-40 (1940). The volume of the air which overflowed at the time of inhalation was measured through a pneumotachometer to determine the bronchial resistance and the values obtained were recorded on a polygraph.
(§1) In the above procedure, histamine was employed as a bronchoconstrictor at a dosage level of 10 μg/kg of body weight, and an aqueous solution containing each of the test compounds and controls shown in Table 1 below was then administered to each of the anesthesized dogs through the femoral vein at the various dosage levels as shown in Table 1 below 1 minute before the administration of the histamine. Sodium pentobartital was infused during the procedure at a dosage level of 4 mg/kg of body weight/hr using an automatic injector in order to inhibit spontaneous respiration and to maintain the anesthetic condition constant over the test period.
(§2) ED50 values were calculated using a Dose Response curve. At the same time the pulse was measured through a transducer and the value was recorded on a polygraph.

[4] = target: T1, β-adrenoreceptor (Canis lupus familiaris, UniProt P54833); test: Inhibition of histamine-induced bronchial resistance increase (bronchospasm), i.v., Konzett-Rossler method, anesthetized dogs; assay type: in vivo, dog (male hybrid adult dogs); details: for Bronchial Resistance (BR) Relative Potency: ED50 compared to isoproterenol as standard compound; for ED50: dog, iv
T1 construct: from tissue; host or cells: airways of anesthetized dogs, in vivo
Description: (§3) The stimulating activity of the compounds of this invention on β-adrenoreceptor was determined as follows: Male hydrid adult dogs, weighing 10 to 15 kg, were anesthesized with sodium pentobartital administered intravenously at a level of 30 mg/kg of body weight. Each of the anesthesized dogs was secured on its back and a cannula was inserted into the trachea.
as §1, §2

[5] = tested on: β-adrenoreceptor; test: Heart rate (pulse) increase, i.v., anesthetized dogs; assay type: in vivo, dog (male hybrid adult dogs); details: for Heart Rate (HR) ED25 beats/min, Compound: pulse increase; for Heart Rate (HR) Relative Potency: ED25 compared to isoproterenol as standard compound
Description: as §3, §1, §2

[6] = read-out: Bronchial Resistance (BR) ED50, Compound
[7] = i.v. 1 minute before histamine 10 μg/kg, anesthetized dogs, read-out: Bronchial Resistance (BR) ED50, Compound

T1 sequence (P54833 whole entry): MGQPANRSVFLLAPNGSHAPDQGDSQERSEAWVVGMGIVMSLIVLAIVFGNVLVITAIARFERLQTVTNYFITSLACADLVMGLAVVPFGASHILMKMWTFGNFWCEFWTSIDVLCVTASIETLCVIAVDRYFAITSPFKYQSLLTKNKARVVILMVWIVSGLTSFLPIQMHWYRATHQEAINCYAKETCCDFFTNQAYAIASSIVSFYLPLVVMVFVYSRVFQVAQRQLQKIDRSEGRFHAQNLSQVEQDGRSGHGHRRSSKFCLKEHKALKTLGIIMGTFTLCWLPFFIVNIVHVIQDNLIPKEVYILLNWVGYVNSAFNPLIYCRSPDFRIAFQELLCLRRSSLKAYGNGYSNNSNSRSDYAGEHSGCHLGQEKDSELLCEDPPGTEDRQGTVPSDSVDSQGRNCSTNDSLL

Row | SMILES | LD50 [1] | duration of β-stimulation activity on histamine-induced bronchospasm [2] | Separation Ratio HR(Relative Potency)/BR(Relative Potency) [3] | Bronchial Resistance (BR) Relative Potency [4] | ED50 [4, 6] | Heart Rate (HR) ED25 beats/min, Compound ([5]; i.v., anesthetized dogs) | Heart Rate (HR) Relative Potency [5] | ED50 [4, 7] | ED50 ([4]; read-out: Bronchial Resistance (BR) ED50, Isoproterenol, isoproterenol as standard compound for the compound of the same line, i.v., anesthetized dogs) | Heart Rate (HR) ED25 beats/min, Isoproterenol ([5]; isoproterenol as standard compound for the compound of the same line, i.v., anesthetized dogs) | Bronchial Resistance (BR) ED50, Compound ([4]; i.v. 1 minute before histamine 10 μg/kg, anesthetized dogs)
1 | CCC(NC(C)C)C(OC(C)=O)c1ccc(OC(C)=O)c2[nH]c(=O)ccc12.Cl (stereo not drawn) [(3), 8-acetoxy-5-(1-acetoxy-2-isopropylaminobutyl)carbostyril hydrochloride] | 112000 µg/kg | exhibit a long-lasting β-stimulation activity on histamine-induced bronchospasm as compared with that of the comparative compound | 11.0 | 5.85 | 0.82 µg/kg | 4.5 µg/kg | 64.4 | – | – | – | –
2 | CCNC(CC)C(O)c1ccc(OC(=O)CC(C)C2CCCCC2)c2[nH]c(=O)ccc12.Cl (stereo not drawn) [(5), 8-(3-cyclohexylbutyryloxy)-5-(1-hydroxy-2-ethylaminobutyl)carbostyril hydrochloride] | – | – | 12.7 | 5.15 | 0.67 µg/kg | 6.5 µg/kg | 65.4 | – | – | – | –
3 | CCC(NC(C)C)C(O)c1ccc(OC(=O)CC(C)(C)C)c2[nH]c(=O)ccc12 (stereo not drawn) [(6)] | 107000 µg/kg | – | 13.1 | 3.52 | – | 3.2 µg/kg | 46.1 | 0.42 µg/kg | – | – | –
4 | CCC(NC(C)C)C(O)c1ccc(OC(=O)Cc2ccccc2)c2[nH]c(=O)ccc12.Cl (stereo not drawn) [(7), 8-phenylacetoxy-5-(1-hydroxy-2-isopropylaminobutyl)carbostyril hydrochloride] | – | – | – | – | 0.17 µg/kg | 1.39 µg/kg | – | – | – | – | –
5 | COc1ccc(CCNCC(OC(=O)C2CC2)c2ccc(OC(=O)C3CC3)c3[nH]c(=O)ccc23)cc1OC (stereo not drawn) [(8), 8-cyclopropylcarbonyloxy)-5-[1-cyclopropylcarbonyloxy-2-(3,4-dimethoxyphenethylamino)ethyl]carbostyril hydrochloride] | 123000 µg/kg | – | 14.8 | 4.64 | – | 4.81 µg/kg | 68.7 | 0.51 µg/kg | – | – | –
6 | CCNC(CC)C(O)c1ccc(OC(=O)c2ccc(C)cc2)c2[nH]c(=O)ccc12.Cl (stereo not drawn) [(9), 8-(4-methylbenzoyloxy)-5-(1-hydroxy-2-ethylaminobutyl)carbostyril hydrochloride] | 132000 µg/kg | – | 14.5 | 1.06 | 0.16 µg/kg | 1.7 µg/kg | 15.5 | – | – | – | –
7 | CCC(NC(C)C)C(O)c1ccc(OC(=O)C(C)C)c2nc(OC(=O)C(C)C)ccc12.Cl (stereo not drawn) [(10), 2,8-diisobutyryloxy-5-(1-hydroxy-2-isopropylaminobutyl)quinoline hydrochloride] | – | exhibit a long-lasting β-stimulation activity on histamine-induced bronchospasm as compared with that of the comparative compound | 9.5 | 5.94 | 0.95 µg/kg | 5.6 µg/kg | 56.4 | – | – | – | –
8 | CCC(NCc1ccccc1)C(O)c1ccc(OC(=O)c2ccc(Cl)cc2)c2[nH]c(=O)ccc12.Cl (stereo not drawn) [(11), 8-(4-chlorobenzoyloxy)-5-(1-hydroxy-2-benzylaminobutyl)carbostyril hydrochloride] | – | – | 7.2 | 6.50 | 0.91 µg/kg | 4.2 µg/kg | 46.7 | – | – | – | –
9 | CCC(NC(C)C)C(OC(=O)c1ccc(C)cc1)c1ccc(OC(=O)c2ccc(C)cc2)c2c1CCC(=O)N2 (stereo not drawn) [(12), 8-(4-methylbenzoyloxy)-5-[(1-(4-methylbenzoyloxy)-2-isopropylaminobutyl]-3,4-dihydrocarbostyril hydrochloride] | 153000 µg/kg | – | 10.3 | 7.30 | – | 8.3 µg/kg | 75.5 | 0.73 µg/kg | – | – | –
10 | CCC(NC(C)C)C(OC(=O)C1CCCCC1)c1ccc(OC(=O)c2ccc(C)cc2)c2[nH]c(=O)ccc12.Cl (stereo not drawn) [(13), 8-(4-methylbenzoyloxy)-5-(1-cyclohexylcarbonyloxy-2-isopropylaminobutyl)carbostyril hydrochloride] | 147000 µg/kg | – | 11.3 | 5.92 | 0.71 µg/kg | 6.02 µg/kg | 66.9 | – | – | – | –
11 | CC(C)C(=O)Oc1ccc(C(O)C(C)NC(C)(C)C)c2ccc(=O)[nH]c12 (stereo not drawn) [(14), 8-isobutyryloxy-5-(1-hydroxy-2-tert-butylaminopropyl)carbostyril] | – | – | 12.3 | 3.92 | – | 3.86 µg/kg | 48.3 | 0.47 µg/kg | – | – | –
12 | CCNC(CC)C(O)c1ccc(O)c2[nH]c(=O)ccc12.Cl (stereo not drawn) [Compound (2), 8-hydroxy-5-(1-hydroxy-2-ethylaminobutyl)carbostyril hydrochloride, reference compound] | – | – | 11.5 | 3.47 | 0.66 µg/kg | 3.6 µg/kg | 40.0 | – | – | – | –
13 | CC(C)NCC(O)c1ccc(O)c(O)c1 (stereo not drawn) [Isoproterenol, reference compound] | – | – | – | – | – | – | – | – | 0.19 µg/kg | 0.07 µg/kg and 0.10 µg/kg | –
14 | CC(C)(C)NCC(O)c1ccc(O)c(CO)c1 (stereo not drawn) [Salubutamol (1), Salbutamol, reference compound] | – | – | 7.52 | 6.1 | – | 2.8 µg/kg | 45.9 | – | – | – | 0.52 µg/kg

Source: patent US4223137A, “Carbostyril derivatives and process for preparing the same” (Otsuka Pharmaceutical Co., Ltd., priority 1976, dated 1980)
